Patent US20090087889A1, “Methods and compositions for growth hydrocarbons in botryococcus sp” (priority 2005, published 2009)

Test system: Botryococcus sp. colonies
Assay: Flotation (buoyancy) of bottom-dwelling colonies as visual assay of hydrocarbon content
Type: cell-based
Description: Previous investigations (Ohmori, et al. 1984; and Wolf, et al, 1985) verified that colonies containing greater than 20% of dry weight as botryococcenoid hydrocarbons were buoyant and that colonies containing less than 5% hydrocarbons remained sunken at the bottom of the culture vessel, providing a visual method for selecting cells with commercial-grade hydrocarbons. […] Colonies in hydrocarbon-enhancement were placed […] without supplemental carbon dioxide gas to eliminate artifacts of flotation from bubbles. Environmental conditions were 150 μE/m^2/sec PAR to 1700 μE/m^2/sec PAR at 25-37° Centigrade. Nutrient chemicals were reagent grade in all laboratory-scale experiments. In field-scale tests, fertilizer grade chemical nutrients were provided. In order to minimize or eliminate ammonia, nitrates were optionally kiln dried prior to admixture. Supplementation with 0.1% to 100% carbon dioxide gas or carbonate (e.g., 10 mg/ml sodium bicarbonate or potassium bicarbonate) increased hydrocarbon synthesis substantially, especially, when under the highest light intensities with soluble elements of the present invention.
Stock cultures were taken from bottom-dwelling colonies that had been maintained in conventional liquid culture media, typified by approximately 1 ppm to 10 ppm phosphate, 0.01 ppm to 0.3 ppm iron, and 0.01 ppm to 0.5 ppm zinc, as for example, in Showa medium and other phycological media. Aqueous nutrient solutions were placed in sterile culture tubes and flasks and steam sterilized twice for 60 minutes. Following inoculation and growth, colonies were concentrated with overnight settling and approximately one million submerged green colonies were collected from the bottom of culture vessels. Equal volumes were resuspended into replicate culture vessels with equal volumes of enhancement media in the highest light intensities available in preparation for experiments. Control cultures were transferred into equal volumes of Showa medium and placed side by side under identical conditions as controls.

[Zn+2] [Zn^+2]
colour of colonies after long exposure (100 ppm Zn^+2, approximately two to eight weeks): color change of the colonies toward amber

phosphates
colour of colonies after long exposure (200 mM to 300 mM phosphates, approximately two to eight weeks): color change of the colonies toward amber | state of colonies after long exposure (after two weeks or more in 300 mM phosphate): remained floating, but cleared to amber | time until bottom-dwelling colonies began to rise to the surface (in water with up to 300 mM phosphates): ≤ 5 h | total phosphate concentration that stimulated the rise of colonies to the surface (subtractive matrix analysis, most rapid in presence of soluble Mg, Mn, Fe and Zn^+2): greater than 80 mM
